For experiment [1], the target named is T1, Fructose-bisphosphate aldolase (Mycobacterium tuberculosis, UniProt P9WQA3).
T1 sequence (P9WQA3 whole entry): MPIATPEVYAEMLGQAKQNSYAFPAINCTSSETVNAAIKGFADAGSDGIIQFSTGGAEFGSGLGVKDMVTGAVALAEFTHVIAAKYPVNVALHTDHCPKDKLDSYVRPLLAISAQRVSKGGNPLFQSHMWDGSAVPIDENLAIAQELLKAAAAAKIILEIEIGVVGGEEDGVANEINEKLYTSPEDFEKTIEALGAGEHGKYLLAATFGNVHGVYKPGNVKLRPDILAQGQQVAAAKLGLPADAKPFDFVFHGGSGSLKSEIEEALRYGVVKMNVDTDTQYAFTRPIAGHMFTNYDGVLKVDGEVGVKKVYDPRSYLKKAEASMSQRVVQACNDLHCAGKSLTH
As to the kind of experiment: Fluorescence-based biochemical high throughput dose response assay for inhibitors of the fructose-bisphosphate aldolase (FBA) of M. tuberculosis. Format: functional.

For experiment [2], the target named is Major prion protein (Homo sapiens, UniProt P04156). In kind it is functional, cell-based.
Experiment [3] addresses FAD-linked sulfhydryl oxidase ALR (Homo sapiens, UniProt P55789). As to the kind of experiment: ALR-catalysed DTT oxidation blockers – biochemical, H2O2 detection, luminescence, cherry-pick, dose response (AID 493248).
Experiment [4] can be described thus: cells.
The nature of experiment [5]: cells. Format: functional, cell-based.
The target in experiment [6] is T2, Trace amine-associated receptor 1 (Homo sapiens, UniProt Q96RJ0).
T2 sequence (Q96RJ0 whole entry): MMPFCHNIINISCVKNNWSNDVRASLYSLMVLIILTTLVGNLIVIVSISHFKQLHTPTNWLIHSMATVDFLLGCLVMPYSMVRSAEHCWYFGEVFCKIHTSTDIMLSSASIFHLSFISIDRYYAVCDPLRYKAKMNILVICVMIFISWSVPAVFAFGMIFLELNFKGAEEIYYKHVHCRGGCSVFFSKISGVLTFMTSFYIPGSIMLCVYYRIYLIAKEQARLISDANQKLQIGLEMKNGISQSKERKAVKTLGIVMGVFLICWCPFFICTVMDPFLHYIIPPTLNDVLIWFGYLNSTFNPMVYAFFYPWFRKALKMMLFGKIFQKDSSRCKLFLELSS
As to the kind of experiment: Fluorescence-based cell-based high throughput dose response assay to identify agonists of the human trace amine associated receptor 1 (TAAR1). Format: functional.

Experiment [7] deals with T2, Trace amine-associated receptor 1. As to the kind of experiment: Counterscreen for agonists of the human trace amine associated receptor 1 (hTAAR1): Fluorescence-based cell-based high throughput dose response assay to identify hTAAR1 agonist that also desensitize TAAR1 receptor response. Format: functional. In general terms: Counterscreens check selectivity or assay interference.

Experiment [8] is described as follows: cells. In kind it is functional, cell-based. The source holds these as a separate data set.
Experiment [9] can be described thus: viability of uninfected HEp-2 cells – cell-based, HTS, cytotoxicity control for RSV inhibitor project, dose response (AID 2410). The conditions noted are these: human respiratory syncytial virus. Format: functional.
Experiment [10] can be described thus: cells. This is another data set of the same source.
Experiment [11] deals with Vero. The experiment can be described thus: cells. Format: functional, cell-based. The conditions noted are these: Chlorocebus sabaeus.
Experiment [12] has as its system H9c2. The experiment can be described thus: cells. In kind it is functional, cell-based. Particulars: Rattus norvegicus, H9c2, Myocardium.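 Note: confirmatory concentration-response retest of ultra-high-throughput screening hits for modulation of myocardial damage; cell death induced by hydrogen peroxide oxidative stress; compound pretreatment for 60 min then peroxide exposure for 2 h; potency is for protecting the cells against peroxide damage rather than for killing them.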
Experiment [13] concerns P388/ADR. The experiment can be described thus: cells. Particulars: Mus musculus. Format: functional.
Experiment [14] has as its system SN12K1. As to the kind of experiment: cells. In kind it is functional. Particulars: Homo sapiens.
The test system of experiment [15] is P388. As to the kind of experiment: cells. Format: functional. The conditions noted are these: Mus musculus.
For experiment [16], the target named is T3, DNA repair and recombination protein RAD54-like (Homo sapiens, UniProt Q92698).
T3 sequence (Q92698 whole entry): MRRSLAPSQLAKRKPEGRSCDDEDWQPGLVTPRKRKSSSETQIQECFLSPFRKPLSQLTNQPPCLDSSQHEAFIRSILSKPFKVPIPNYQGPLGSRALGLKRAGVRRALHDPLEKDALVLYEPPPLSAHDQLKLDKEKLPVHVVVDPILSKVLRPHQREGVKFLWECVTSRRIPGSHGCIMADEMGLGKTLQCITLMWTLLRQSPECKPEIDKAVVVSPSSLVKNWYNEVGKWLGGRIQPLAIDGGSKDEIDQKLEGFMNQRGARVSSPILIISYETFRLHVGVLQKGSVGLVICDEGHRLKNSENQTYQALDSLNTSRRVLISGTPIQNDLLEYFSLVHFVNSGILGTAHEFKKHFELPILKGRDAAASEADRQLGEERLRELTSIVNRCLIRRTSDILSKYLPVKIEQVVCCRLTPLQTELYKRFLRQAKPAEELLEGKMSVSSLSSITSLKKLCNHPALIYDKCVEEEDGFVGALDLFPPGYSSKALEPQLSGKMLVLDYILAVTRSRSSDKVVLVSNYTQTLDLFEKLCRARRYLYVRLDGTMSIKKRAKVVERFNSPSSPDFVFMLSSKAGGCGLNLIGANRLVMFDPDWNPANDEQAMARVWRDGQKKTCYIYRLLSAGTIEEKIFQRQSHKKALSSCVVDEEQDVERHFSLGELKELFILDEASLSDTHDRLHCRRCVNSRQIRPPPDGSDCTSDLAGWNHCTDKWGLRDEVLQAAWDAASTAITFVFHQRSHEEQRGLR
As to the kind of experiment: RAD54 Holliday junction migration blockers – biochemical, fluorescence, cherry-picked samples, dose series, confirmation (AID 651657). Format: functional.

Experiment [17] can be described thus: P. falciparum Dd2 growth inhibitors, dose response, SYBR Green, cherry-picked samples (AID 1159567). In kind it is functional, cell-based.
Experiment [18] in a line: OVCAR-3 cell viability loss – plate reader, dry powder samples, PAX8 inhibitor project, dose response (AID 743044). In kind it is functional, cell-based.
Experiment [19] can be described thus: OVCAR8 cell viability loss – plate reader, dry powder samples, PAX8 project, dose response (AID 743197). In kind it is functional, cell-based. Particulars: OVCAR-8.
Experiment [20] can be described thus: IGROV1 cell killing – plate reader, dry powder samples, PAX8 inhibitor project, dose response (AID 743043). Format: functional, cell-based. Particulars: IGROV-1.
The target of experiment [21] is Paired box protein Pax-8 (Homo sapiens, UniProt Q06710). As to the kind of experiment: PAX8 transcriptional activity inhibition in RMG-I – RMG-I cells, luciferase, cherry-pick, dose response (AID 687027).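 Note: luciferase reporter driven by Pax8 target thyroperoxidase promoter measured by SteadyGlo luminescence.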 In kind it is functional, cell-based.

Here are results for 15 molecules from ChEMBL document CHEMBL1201862, “PubChem BioAssay data set” (2004).

Structures are written as SMILES. Activity calls are given as the source filed them.

With `CCC1OC2(C)OC(=N)C1(C#N)C(C#N)(C#N)C2c1ccccc1` (stereo not drawn), the concentration for half-maximal inhibition (IC50) (usually the concentration at which inhibition is half-maximal) in experiment [1] is > 1.11 µM (active).
With `COc1ccc2[nH]c3c(=S)[nH]cnc3c2c1`, the IC50 in [2] was 5.91 µM (active). Further, the half-maximal activity concentration (AC50) (in general, the midpoint of the concentration-response curve, whichever way the signal moves) in experiment [3] is 0.035 µM (active).
Turning to `COc1ccc2[nH]c3c(S)ncnc3c2c1`, in experiment [4], the IC50 was > 138 µM (inactive).
Regarding `O=C(O)C1C2C=CC(O2)C1C(=O)NCCc1cccc(Cl)c1` (stereo not drawn), the IC50 in [5] was > 29.9 µM (inactive); in [7], 3.1 µM (active). Also, the 50% effective concentration (EC50) (in general, the midpoint of the concentration-response curve) in experiment [6] is 0.307 µM (active); in experiment [8], > 29.9 µM (inactive).
As for `c1ccc(CCn2nnnc2C(c2cccs2)N2CCN(Cc3ccc4c(c3)OCO4)CC2)cc1` (stereo not drawn), the IC50 in experiment [5] is > 29.9 µM (inactive); in experiment [7] it was 2.19 µM (active). In addition, the values for the half-maximal effective concentration (EC50) in experiment [6] and in experiment [8] were 0.389 µM (active) and > 29.9 µM (inactive), respectively.
As for `COc1ccccc1OCC(=O)Nc1nc2c(s1)CCCC2`, in [9], the CC50 (commonly the concentration giving 50% cytotoxicity) was 29.5 µM (active). In addition, the 50% inhibitory concentration (IC50) is 28.7 µM (active) in experiment [10] and 24.3 µM (active) in experiment [11].
Regarding `Cc1ccn2cc(-c3cnoc3C)nc2c1`, the IC50 in experiment [1] is > 1.11 µM (active).
Same read-out and setting: then `COc1ccc(-c2cc(C(=O)NCC3CCCO3)c3cc(C(C)C)ccc3n2)cc1` (stereo not drawn), with 0.797 µM (active).
Consider `COc1ccc(Nc2nnc(-c3ccc(O)cc3)c3ccccc23)cc1C(N)=O`, for which the concentration for half-maximal inhibition (IC50) in [2] was 0.759 µM (active); in experiment [12], 15 µM (active); in experiment [4], > 138 µM (inactive).
`Cc1c2ccncc2c(C)c2c1[nH]c1ccc(OCCN(C)C)cc12`: the 50% growth inhibitory concentration (GI50) (in general, the concentration at which growth is held to half of that of the control) in [13] is 0.0283 µM (active); in experiment [14], 0.148 µM (active); in experiment [15] it was 0.0153 µM (active).
Taken in the same sequence, the figures for `COC1(O)c2cccc(Cl)c2C(=O)N1C1(C(N)=O)CCCCC1` (stereo not drawn) were > 100 µM (inactive), > 100 µM (inactive) and > 100 µM (inactive).
Taken in the same sequence, the figures for `COc1cc([C@@H]2c3cc4c(cc3[C@@H](OC3OC5CO[C@@H](c6cccs6)OC5C(O)C3O)[C@H]3COC(=O)[C@H]23)OCO4)cc(OC)c1O` (stereo partly drawn) were 0.877 µM (active), 0.00838 µM (active) and 0.00815 µM (active).
For the molecule `Cn1c(NCCN2CCCC2)nc2cc(-c3ccsc3)sc2c1=O`, the AC50 in experiment [16] is 55.8 µM (active).
Regarding `C[C@@H]1CN([C@H](C)CO)C(=O)c2c(c3ccccc3n2C)-c2ccccc2CO[C@H]1CN(C)S(=O)(=O)c1ccc(C(F)(F)F)cc1`, the concentration at half-maximal activity (AC50) is 2.68 µM (active) in experiment [17]; 23.5 µM (active) in [18]; 27 µM (active) in experiment [19]; 42.5 µM (active) in [20]; 4.41 µM (active) in experiment [21].
For `NC(=O)c1ncn2c(=O)n(CCCl)nnc12` [MITOZOLOMIDE], the GI50 in experiment [13] is 12.3 µM (inactive); in [14], 75.2 µM (inactive); in experiment [15] it was 13.8 µM (inactive).
